From patent US9023850B2, “Nematocidal sulfonamides” (E I du Pont de Nemours and Company, priority 2010, dated 2015)

What follows are compounds tested on cucumber seedlings (assay: Test A: phytotoxicity to the cucumber seedlings of the test units). Details: 250 ppm active ingredient applied to soil, 7 days.
Assay type: in vivo
Method: Control of the southern root-knot nematode (Meloidogyne incognita) through contact and/or systemic means was evaluated in test units consisting of small open containers filled with a sandy soil mixture and cucumber seedlings. Test compounds were formulated using a solution containing 50% acetone and 50% water. Test compounds were applied directly to the soil of the test units at a concentration of 250 ppm active ingredient. Each test was replicated 3 times. After treatment, the test units were allowed to dry for 1 hour, after which time about 250 second-stage juvenile (J2) larvae were pipetted into the soil. The test units were held at 27° C. and watered as needed for 7 days. Nematocidal efficacy was determined by the amount of root gall formation observed when compared to an untreated control. No gall formation was indicative of 100% nematode control. Gall formation equivalent to that found in the untreated control was indicative of 0% control. No nematode control rating was given to compounds showing significant phytotoxicity.
`O=C(NS(=O)(=O)c1cc(C(F)(F)F)ccc1Cl)c1cn2cc(C(F)(F)F)cnc2n1` [Compound 6, N-[[2-chloro-5-(trifluoromethyl)phenyl]sulfonyl]-6-(trifluoromethyl)imidazo[1,2-a]pyrimidine-2-carboxamide] was tested, and the phytotoxicity was “no significant phytotoxicity”. In the case of `COc1ccc(Cl)c(S(=O)(=O)NC(=O)c2cn3cc(C(F)(F)F)ncc3n2)c1` [Compound 1, N-[(2-chloro-5-methoxyphenyl)sulfonyl]-6-(trifluoromethyl)imidazo[1,2-a]pyrazine-2-carboxamide], the phytotoxicity is reported as “no significant phytotoxicity”. In the case of `O=C(NS(=O)(=O)c1cc(C(F)(F)F)ccc1Cl)c1cn2cc(Br)cnc2n1` [Compound 4, 6-bromo-N-[[2-chloro-5-(trifluoromethyl)phenyl]sulfonyl]imidazo[1,2-a]pyrimidine-2-carboxamide], the phytotoxicity is reported as “no significant phytotoxicity”.
